“Also recorded” adds a separate entry of the source.
How the values were obtained:
Assay type in all cases: cell-based, human
PC3 = assay: MTT cell viability assay
Method: MTT Cell Viability Assay: To examine the effects of DEFB1 on cell growth, metabolic 3-[4,5-dimethylthiazol-2-yl]-2,5 diphenyl tetrazolium bromide (MTT) assays were performed. PC3, DU145 and LNCaP cells co-transfected with pVgRXR plasmid and pIND/DEFB1 construct or empty pIND vector were seeded onto a 96-well plate at 1-5×10^3 cells per well. Twenty-four hours after seeding, fresh growth medium was added containing 10 μM Ponasterone A daily to induce DEFB1 expression for 24-, 48- and 72 hours after which the MTT assay was performed according to the manufacturer's instructions (Promega). Reactions were performed three times in triplicate.
MTT Cytotoxicity Assay: DU145, PC3 and LNCaP cells (1×105) were transfected with 0.5 μg of the PAX2 siRNA pool or control siRNA pool using Codebreaker transfection reagent according to the manufacturer's protocol (Promega). Next, cell suspensions were diluted and seeded onto a 96-well plate at 1-5×10^3 cells per well and allowed to grow for 2-, 4- or 6 days. After culture, cell viability was determined by measuring the conversion of 3-[4,5-dimethylthiazol-2-yl]-2,5 diphenyl tetrazolium bromide, MTT (Promega), to a colored formazan product. Absorbance was read at 540 nm on a scanning multiwell spectrophotometer.
MTT cell viability assay: To examine the effects of hBD-1 on cell growth, metabolic 3-[4,5-dimethylthiazol-2-yl]-2,5-diphenyl tetrazolium bromide (MTT) assay was performed. DU145, LNCaP, PC3 and PC3/AR+ cells co-transfected with pvgRXR plasmid and pIND/hBD-1 construct or control pvgRXR plasmid were seeded onto a 96-well plate at 1-5×10^3 cells per well. Twenty-four hours after seeding, fresh growth medium was added containing 10 μM Pon A daily to induce hBD-1 expression for 24, 48 and 72 h after which the MTT assay was performed according to the manufacturer's instructions (Promega). Reactions were performed three times in triplicate.
MTT cytotoxicity assay: DU145, PC3 and LNCaP cell suspensions were diluted and seeded onto a 96-well plate at 1-5×10^3 cells per well. Next the cells were transfected, according to the manufacturer's protocol (Promega), with 5 pg/cell of the PAX2 siRNA pool, control siRNA pool, or the Codebreaker transfection reagent alone. All cells were allowed to grow for 2-, 4- or 6 days after treatment. Cell viability was then determined by measuring the conversion of 3-[4,5-dimethylthiazol-2-yl]-2,5 diphenyl tetrazolium bromide, MTT (Promega) to a colored formazan product. Absorbance was read at 540 nm on a scanning multi-well spectrophotometer.

DU145 = assay: Pan-caspase detection (FAM-VAD-FMK, confocal); conditions: DU145, 24 h DEFB1 (hBD-1) induction
Method: Detection of caspase activity in the prostate cancer cell lines was performed using APO LOGIX™ Carboxyfluorescin Caspase detection kit (Cell Technology, Mountain View, Calif.). Active caspases were detected through the use of a FAM-VAD-FMK inhibitor that irreversibly binds to active caspases. Briefly, DU 145 and PC3 cells (1.5-3×10^5) containing the DEFB1 expression system were plated in 35 mm glass bottom microwell dishes (Matek, Ashland, Mass.) and treated for 24 hours with media only or with media containing PonA as previously described. Next, 10 μl of a 30× working dilution of carboxyfluorescein labeled peptide fluoromethyl ketone (FAM-VAD-FMK) was added to 300 μl of media and added to each 35 mm dish. Cells were then incubated for 1 hour at 37° C. under 5% CO2. […] The fluorescent signal was analyzed using a confocal microscope (Zeiss LSM 5 Pascal) and a 63×DIC oil lens with a Vario 2 RGB Laser Scanning Module.
Pan-Caspase Detection: Detection of caspase activity in the prostate cancer cell lines was performed using APO LOGIX™ Carboxyfluorescin Caspase detection kit (Cell Technology, Mountain View, Calif.). Active caspases were detected through the use of a FAM-VAD-FMK inhibitor that irreversibly binds to active caspases. […] The fluorescent signal was analyzed using a confocal microscope (Zeiss LSM 5 Pascal) and a 63×DIC oil lens with a Vario 2 RGB Laser Scanning Module. […]

LNCaP = assay: Pan-caspase detection (FAM-VAD-FMK, confocal); conditions: 24 h DEFB1 (hBD-1) induction

Substance: DEFB1: human beta defensin-1 expressed from the ecdysone inducible pIND/DEFB1 construct, induced with Ponasterone A (DHYNCVSSGGQCLYSACPIFTKIQGTCYRGKAKCCK; UniProt P60022 33-68, looked up)
- relative cell viability (PC3; PC3, 24 h DEFB1 (hBD-1) induction): 56%
- relative cell viability (PC3; PC3, 48 h DEFB1 (hBD-1) induction): 37%
- relative cell viability (PC3; PC3, 72 h DEFB1 (hBD-1) induction): 29%
- caspase activity (DU145): revealed caspase activity; also recorded: green staining
- caspase activity (DU145; listed as hBD-1): green staining
- caspase activity (LNCaP): No caspase activity was detected; also recorded: no green staining
- caspase activity (LNCaP; listed as hBD-1): no green staining

— patent US8445444B2, “Compositions and methods for diagnosing, treating, and preventing prostate conditions” (Phigenix, Inc., priority 2007, dated 2013)
